# Laboratory results published in patent US10221139B2, “Inhibitors of histone demethylases” (Gilead Sciences, Inc., priority 2012, dated 2019).
# Assays:
# GASC1 (KDM4C) = molecular target: T1, GASC1 (KDM4C) (Homo sapiens, UniProt Q9H3R0); experiment: Immunofluorescence assay in U2OS cells transfected with pCMVHA JMJD2C (H3K9me3 mark); type: cell-based; details: 20 hours
# T1 construct: Full length; host or cells: U2OS
# T1 sequence (Q9H3R0 1-1056): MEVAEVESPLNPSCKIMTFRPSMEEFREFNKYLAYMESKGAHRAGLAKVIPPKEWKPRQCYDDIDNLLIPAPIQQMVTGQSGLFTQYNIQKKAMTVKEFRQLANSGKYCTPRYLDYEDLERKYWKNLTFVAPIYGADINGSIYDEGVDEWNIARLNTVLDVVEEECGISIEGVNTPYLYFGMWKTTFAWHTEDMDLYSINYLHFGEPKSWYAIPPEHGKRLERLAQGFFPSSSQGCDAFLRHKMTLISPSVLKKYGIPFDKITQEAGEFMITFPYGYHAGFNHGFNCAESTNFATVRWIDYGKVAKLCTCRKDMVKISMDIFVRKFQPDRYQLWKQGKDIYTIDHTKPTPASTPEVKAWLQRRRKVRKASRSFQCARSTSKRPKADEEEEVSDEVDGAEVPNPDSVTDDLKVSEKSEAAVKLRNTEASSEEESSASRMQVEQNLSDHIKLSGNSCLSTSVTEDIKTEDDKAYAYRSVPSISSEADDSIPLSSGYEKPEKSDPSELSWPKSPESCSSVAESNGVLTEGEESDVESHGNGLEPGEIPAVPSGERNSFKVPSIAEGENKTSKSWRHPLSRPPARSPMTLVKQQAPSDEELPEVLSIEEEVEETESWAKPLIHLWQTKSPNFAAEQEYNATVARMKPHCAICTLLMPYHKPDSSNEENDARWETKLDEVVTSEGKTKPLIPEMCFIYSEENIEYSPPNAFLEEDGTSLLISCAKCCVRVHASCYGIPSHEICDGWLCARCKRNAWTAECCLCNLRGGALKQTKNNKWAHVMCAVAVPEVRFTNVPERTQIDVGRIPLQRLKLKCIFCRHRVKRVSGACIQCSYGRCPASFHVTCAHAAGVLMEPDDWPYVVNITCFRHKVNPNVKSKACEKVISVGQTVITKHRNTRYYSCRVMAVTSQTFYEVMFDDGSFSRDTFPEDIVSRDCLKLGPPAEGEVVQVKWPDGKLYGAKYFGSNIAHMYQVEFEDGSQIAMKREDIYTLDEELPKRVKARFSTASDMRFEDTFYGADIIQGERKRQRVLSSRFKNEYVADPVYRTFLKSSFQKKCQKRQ
# Protocol: (§1) U2OS cells were seeded 24 hours before transfection. Transfection was performed with Fugene HD transfection reagent as recommended by the manufacturer. 6 hours after transfection, the cells were harvested and seeded into multi well plates into media containing compound. The media used was DMEM containing 5% FBS and pen/strep. 20 hours after incubation of cells with compounds, the cells were washed once in PBS, harvested by fixation with formaldehyde 4% aqueous solution, and washed 2 times in PBS. Subsequently, the cells were permeabilized in PBS with 0.2% Triton X-100 for 10 min at room temperature. Blocking was performed in PBS with 0.2% Triton X-100 and 5% FBS for 45 min at room temperature. The cells were incubated with primary antibodies diluted 1 μg/ml in blocking solution over night at 4° C. The primary antibodies used in the assays were HA.11 (Covance, MMS-101P) and the antibody detecting the mark specified in the Table 6 below. After incubation with primary antibodies, the cells were washed 3 times with PBS, incubated with secondary antibodies diluted 1:1000 (Alexa fluor 594 goat anti rabbit IgG, Invitrogen, A11012; Alexa flour 488 donkey anti mouse IgG, Invitrogen, A21202) and Hoechst, 20 μg/ml (Sigma, 33342) in blocking solution, and washed again 3 times with PBS. Finally, PBS was added and high throughput imaging and analysis were performed by an IN Cell Analyzer 1000 (GE Healthcare). The robot software analyzed individual cells and divided these into HA^+ (transfected cells) and HA^− (non-transfected cells). The IC50 values in Table 7 below were based on an average measure of the staining of the mark specified in the Table 6 below in the transfected cells.
# PLU1 (KDM5B) = molecular target: T2, PLU1 (KDM5B) (Homo sapiens, UniProt Q9UGL1); experiment: Immunofluorescence assay in U2OS cells transfected with pCMVHA PLU1 (H3K4me2 mark); type: cell-based; details: 20 hours
# T2 construct: (1-752); host or cells: U2OS
# T2 sequence (Q9UGL1 1-752): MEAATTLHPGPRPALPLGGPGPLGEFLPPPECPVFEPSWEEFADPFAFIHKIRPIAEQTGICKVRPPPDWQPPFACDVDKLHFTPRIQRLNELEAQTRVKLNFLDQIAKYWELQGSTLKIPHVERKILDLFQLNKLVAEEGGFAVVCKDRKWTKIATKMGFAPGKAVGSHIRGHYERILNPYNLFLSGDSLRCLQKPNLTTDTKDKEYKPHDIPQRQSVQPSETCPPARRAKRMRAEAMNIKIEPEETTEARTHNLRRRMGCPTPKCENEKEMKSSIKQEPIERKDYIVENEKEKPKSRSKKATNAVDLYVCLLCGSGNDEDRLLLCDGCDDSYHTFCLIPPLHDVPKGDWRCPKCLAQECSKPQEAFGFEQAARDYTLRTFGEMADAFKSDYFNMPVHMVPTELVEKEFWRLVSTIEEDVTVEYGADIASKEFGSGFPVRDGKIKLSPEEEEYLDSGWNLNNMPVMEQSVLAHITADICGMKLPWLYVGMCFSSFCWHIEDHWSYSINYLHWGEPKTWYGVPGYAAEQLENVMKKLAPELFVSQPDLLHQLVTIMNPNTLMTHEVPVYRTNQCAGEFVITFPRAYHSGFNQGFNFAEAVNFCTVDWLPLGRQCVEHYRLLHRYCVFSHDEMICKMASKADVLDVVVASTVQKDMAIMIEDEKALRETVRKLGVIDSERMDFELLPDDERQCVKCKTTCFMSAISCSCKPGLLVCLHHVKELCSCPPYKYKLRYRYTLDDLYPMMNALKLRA
# Protocol: as §1
IC50 (GASC1 (KDM4C)) [µM],IC50 (PLU1 (KDM5B)) [µM],Structure (SMILES)
> 50,> 50,"COCCN1CCN(C(=O)CNCc2cc(C(=O)O)ccn2)CC1 [drawing 308, 2-[({2-[4-(2-methoxyethyl)piperazin-1-yl]-2-oxoethyl}amino)methyl] pyridine-4-carboxylic acid]"
1 to 50,1 to 50,"C=CCN(CC=C)C(=O)CNCc1cc(C(=O)O)ccn1 [drawing 309, 2-[({[bis(prop-2-en-1-yl)carbamoyl]methyl}amino)methyl]pyridine-4-carboxylic acid]"
> 50,> 50,"O=C(O)c1ccnc(CNCCCNCCCN2CCCC2)c1 [drawing 310, 2-{[(3-{[3-(pyrrolidin-1-yl)propyl]amino}propyl)amino]methyl}pyridine-4-carboxylic acid]"
1 to 50,1 to 50,"CN(CCCc1nccn1C)C(=O)CNCc1cc(C(=O)O)ccn1 [drawing 312, 2-{[({methyl[3-(1-methyl-1H-imidazol-2-yl)propyl]carbamoyl}methyl)amino]methyl}pyridine-4-carboxylic acid]"
> 50,1 to 50,"CCN1CCCC1CNC(=O)CNCc1cc(C(=O)O)ccn1 (stereo not drawn) [drawing 313, 2-{[({[(1-ethylpyrrolidin-2-yl)methyl]carbamoyl}methyl)amino]methyl}pyridine-4-carboxylic acid]"
> 50,> 50,"CN(Cc1ccnn1C)C(=O)CNCc1cc(C(=O)O)ccn1 [drawing 314, 2-{[({methyl[(1-methyl-1H-pyrazol-5-yl)methyl]carbamoyl}methyl)amino]methyl}pyridine-4-carboxylic acid]"
> 50,1 to 50,"O=C(O)c1ccnc(CN[C@@H]2CCN(CCCc3ccccc3)C2)c1 [drawing 315, 2-({[(3R)-1-(3-phenylpropyl)pyrrolidin-3-yl]amino}methyl)pyridine-4-carboxylic acid]"
> 50,> 50,"O=C(CNCc1cc(C(=O)O)ccn1)NC1CCN(CCCc2ccccc2)CC1 [drawing 317, 2-{[({[1-(3-phenylpropyl)piperidin-4-yl]carbamoyl}methyl)amino]methyl}pyridine-4-carboxylic acid]"
> 50,> 50,"O=C(CNCc1cc(C(=O)O)ccn1)NC1CCN(Cc2ccco2)CC1 [drawing 318, 2-{[({[1-(furan-2-ylmethyl)piperidin-4-yl]carbamoyl}methyl)amino]methyl}pyridine-4-carboxylic acid]"
> 50,> 50,"O=C(CNCc1cc(C(=O)O)ccn1)NC1CCN(Cc2ccc(-c3ccccc3)o2)CC1 [drawing 319, 2-({[({1-[(5-phenylfuran-2-yl)methyl]piperidin-4-yl}carbamoyl)methyl]amino}methyl)pyridine-4-carboxylic acid]"
> 50,1 to 50,"CN(CCCNCc1cc(C(=O)O)ccn1)Cc1ccccc1F [drawing 322, 2-{[(3-{[(2-fluorophenyl)methyl](methyl)amino}propyl)amino]methyl}pyridine-4-carboxylic acid]"
1 to 50,1 to 50,"O=C(O)c1ccnc(CNCCCN2CCCC2)c1 [drawing 325, 2-({[3-(pyrrolidin-1-yl)propyl]amino}methyl)pyridine-4-carboxylic acid]"
1 to 50,1 to 50,"COC(=O)c1ccnc(CNCCCN2CCCC2)c1 [drawing 326, methyl 2-({[3-(pyrrolidin-1-yl)propyl]amino}methyl) pyridine-4-carboxylate]"
1 to 50,1 to 50,"CCN(CC)CCCCNCc1cc(C(=O)O)ccn1 [drawing 327, 2-({[4-(diethylamino)butyl]amino}methyl)pyridine-4-carboxylic acid]"
1 to 50,< 1,"CCN(CC)CCCCNCc1cc(C(=O)Oc2ccc(OC)cc2)ccn1 [drawing 329, 4-methoxyphenyl 2-({[4-(diethylamino)butyl]amino}methyl)pyridine-4-carboxylate]"
1 to 50,< 1,"CCOC(=O)c1ccccc1OC(=O)c1ccnc(CNCCCCN(CC)CC)c1 [drawing 330, 2-(ethoxycarbonyl) phenyl 2-({[4-(diethylamino)butyl]amino}methyl)pyridine-4-carboxylate]"
1 to 50,1 to 50,"CCN(CC)CCCCNCc1cc(C(=O)OCCN(C)C)ccn1 [drawing 331, 2-(dimethylamino) ethyl 2-({[4-(diethylamino)butyl]amino}methyl)pyridine-4-carboxylate]"
1 to 50,1 to 50,"CCN(CC)CCCCNCc1cc(C(=O)OCCCN(C)C)ccn1 [drawing 332, 3-(dimethylamino) propyl 2-({[4-(diethylamino)butyl]amino}methyl)pyridine-4-carboxylate]"
